Reference: article PMC12329412, “Study of the mass balance, biotransformation, and safety of [^14C]IBI351 in healthy Chinese subjects” (Journal of Biomedical Research, 2024)

Tests used:
[1] = Radioactive metabolite profiling in pooled plasma, urine and feces; type: in vivo, human; settings: for Plasma (0–144 h) % of AUC (share of total plasma radioactivity exposure) / Plasma (0–144 h) Metabolite/parent drug (%): pooled plasma 0–144 h; for Plasma (0–144 h) Metabolite/parent drug (%): relative to the parent drug; for Feces+urine % of dose: sum of feces 0–192 h and urine 0–96 h; for Feces (0–192 h) % of dose: pooled feces 0–192 h
Description: Moreover, four plasma samples at 1 h, 4 h, 48 h, and 96 h were obtained by mixing them in equal volumes. Urine samples were pooled across individuals at an equal volume to obtain one pooled sample within each time period of 0–24 h, 24–48 h, and 48–96 h. Fecal samples (0–192 h) were pooled at the same weight percentages across collection intervals for each subject. Moreover, fecal samples were pooled across individuals at an equal weight to obtain one pooled sample within each time period of 0–72 h, 72–120 h, and 120–192 h. Plasma, urine, and fecal homogenates were extracted and concentrated using organic solvents, and then the redissolved solutions were used for metabolite profile analysis. The plasma, urine, and fecal extracts were separated on HPLC columns, and the HPLC flow fractions were collected in Deepwell LumaPlateTM-96 plates at 15 s/fraction using an automatic fraction collector. The radioactivity of each fraction was quantified using a microplate detector with ARC® Convert and Evaluation software (3.0.2.379) and transformed to obtain the radioactive metabolite spectra. The radioactive metabolite spectra of each sample were integrated to acquire the peak area of each radioactive metabolite peak, the proportion of each spectral peak to the total radioactive intensity of the sample, and the proportion of the radioactivity of the major metabolites to the TRA in the corresponding blood, urine, and fecal samples. Therefore, the ratio of metabolites' concentrations to the total drug exposure (AUC) in the plasma and the ratio of each metabolite's level to the dose administered in the urine and feces were calculated. Liquid chromatography with low-energy radionuclide detection and mass spectrometry was used to identify the main metabolites in human plasma, urine, and fecal samples and to identify the possible biotransformation pathways of IBI351 in these samples.

[2] = ref [11],[19]; cited from earlier work

With `CCC(=O)N1CCN2c3c(c(=O)n(-c4c(C)ccnc4C(C)C)c4nc(-c5c(O)cccc5F)c(Cl)cc34)N(C)C(=O)C2C1` (centres unmarked) [M618] the “Plasma (0–144 h) % of AUC (share of total plasma radioactivity exposure)” value (shortened to “Plasma (0–144 h) % of AUC”) [1] was 0.09 % of AUC, the “Plasma (0–144 h) Metabolite/parent drug (%)” value [1] was 1.98% and the “Feces+urine % of dose” value [1] was 0.35 % of dose.
With `Cc1ccnc(C(C)C)c1-n1c(=O)c2c(c3cc(Cl)c(-c4c(O)cccc4F)nc31)N1CCN(C(=O)C(O)CO)CC1C(=O)N2C` (centres unmarked) [M650] the “Feces (0–192 h) % of dose” value [1] was 2.47 % of dose, the “Plasma (0–144 h) Metabolite/parent drug (%)” value [1] was 5.95% and the “Feces+urine % of dose” value [1] was 2.70 % of dose.
For `Cc1ccnc(C(C)C)c1-n1c(=O)c2c(c3cc(Cl)c(-c4c(O)cccc4F)nc31)N1CCN(C(=O)CCSCC(N)C(=O)O)CC1C(=O)N2C` (centres unmarked) [M737], the “Feces (0–192 h) % of dose” value [1] was 39.87 % of dose, the “Plasma (0–144 h) % of AUC” value [1] was 6.17 % of AUC and the “Plasma (0–144 h) Metabolite/parent drug (%)” value [1] was 135.90%. For the same compound, the “Urine (0–96 h) % of dose” value ([1]; pooled urine 0–96 h) was 5.49 % of dose and the “Feces+urine % of dose” value [1] was 45.36 % of dose.
In the case of `CC(=O)NC(CSCCC(=O)N1CCN2c3c(c(=O)n(-c4c(C)ccnc4C(C)C)c4nc(-c5c(O)cccc5F)c(Cl)cc34)N(C)C(=O)C2C1)C(=O)O` (centres unmarked) [M779], the “Feces (0–192 h) % of dose” value [1] is reported as 2.59 % of dose, the “Plasma (0–144 h) % of AUC” value [1] is reported as 0.05 % of AUC and the “Plasma (0–144 h) Metabolite/parent drug (%)” value [1] is reported as 1.10%. For the same compound, the “Feces+urine % of dose” value [1] was 2.70 % of dose.
For `C=C(F)C(=O)N1CCN(c2nc(OC[C@@H]3CCCN3C)nc3c2CCN(c2cccc4cccc(Cl)c24)C3)C[C@@H]1CC#N` [adagrasib], the “average time to reach Cmax” value [2] is listed as 6 h, the “plasma protein binding rate” value [2] is listed as 98% and the terminal elimination half-life [2] is listed as 23 h. For the same compound, the volume of distribution [2] was 942 L.
In the case of `C=CC(=O)N1CCN(c2nc(=O)n(-c3c(C)ccnc3C(C)C)c3nc(-c4c(O)cccc4F)c(F)cc23)[C@@H](C)C1` [sotorasib], the “average time to reach Cmax” value [2] is given as 1 h, the “grade of associated adverse events” value [2] is given as at least 3 and the terminal elimination half-life [2] is given as 5 h. The volume of distribution [2] was 211 L.
